Laboratory results as given in patent US20230052740A1, “MODULATORS OF CIRCADIAN RHYTHMS AND USES THEREOF” (The Regents of the University of California, priority 2019, published 2023).
Where two headings read alike, the source gives them in different places. Blank lines part the entries; values can stand above or below the compound they belong to.

Experiments:
[1] = target: T1, MT2 (Homo sapiens, UniProt P49286); assay: cAMP assay (GloSensor), isoproterenol-stimulated cAMP in HEK cells; assay type: cell-based; parameters: expressed in transfected cells; host or cells: HEK-T (HEK-293 T) cells, co-transfected with GloSensor DNA; MT2 activity: dose or concentration left out as unconfirmed; conditions: for Emax: read-out: MT2 % Emax (converted); for MT2 pEC50: Table 2; for type selectivity: panel of widely-used MTR ligands, in words
T1 sequence (P49286 1-362): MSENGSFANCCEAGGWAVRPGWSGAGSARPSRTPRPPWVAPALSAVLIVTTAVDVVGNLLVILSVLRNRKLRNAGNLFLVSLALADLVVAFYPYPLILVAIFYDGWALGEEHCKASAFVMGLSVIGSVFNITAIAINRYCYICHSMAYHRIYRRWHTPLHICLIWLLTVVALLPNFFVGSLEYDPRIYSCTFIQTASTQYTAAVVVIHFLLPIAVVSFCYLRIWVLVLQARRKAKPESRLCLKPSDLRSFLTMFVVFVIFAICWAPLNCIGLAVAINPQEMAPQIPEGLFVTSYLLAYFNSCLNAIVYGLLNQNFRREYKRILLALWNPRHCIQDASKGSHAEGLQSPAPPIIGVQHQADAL
Experimental: MT1 and MT2 receptors were tested using Promega's spilt luciferase based GboSensor cAMP biosensor technology. HEK-T cells were plated in 15 cm cell culture dish (at a density of 18 million cells) containing DMEM composed of 10% dialyzed FBS, 2 mM L-glutamine, 100 units/ml penicillin G, 100 μg/ml streptomycin for 4-6 hour. Then, cells were co-transfected with 8 μg of construct which encodes either MT1 or MT2 (de-Tangonized constructs) and […] of Glosensor DNA. […] The next day, cell medium were discarded and loaded with 20 μl of assay buffer (1×HBSS, 20 mM HEPES, pH 7.4, 0.1% BSA). To measure agonist activity of MT1 or MT2 receptor, 10 μl of test compound solution at 3× final concentration was added for 15 minutes followed by addition of 10 μl of luciferin/isoproterenol mixture (at a final concentration of 4 mM and 200 nM respectively) for another 15 mins for luminescence quantification. Then, plates were counted using SpectraMax luminescence reader (Molecular Device). Data were analyzed using GraphPad Prism 6.0.

[2] = target: hMT1 (Homo sapiens, UniProt P48039); assay: as above; assay type: cell-based; parameters: expressed in transfected cells; host or cells: HEK-T (HEK-293 T) cells, co-transfected with GloSensor DNA; conditions: for Emax: read-out: MT1 % Emax (converted); for EC50: read-out: EC50 at MT1
Experimental: HEK-293 T cells were maintained with complete Dulbecco's modified Eagle's medium (DMEM), which is composed of 10% fetal bovine serum (FBS), 2 mM L-glutamine, 100 units/ml penicillin G, 100 μg/ml streptomycin at 37° C. in the presence of 5% CO2
MT1 and MT2 receptors were tested using Promega's spilt luciferase based GboSensor cAMP biosensor technology. HEK-T cells were plated in 15 cm cell culture dish (at a density of 18 million cells) containing DMEM composed of 10% dialyzed FBS, 2 mM L-glutamine, 100 units/ml penicillin G, 100 μg/ml streptomycin for 4-6 hour. Then, cells were co-transfected with 8 μg of construct which encodes either MT1 or MT2 (de-Tangonized constructs) and […] of Glosensor DNA. Next day, transfected cells were seeded into poly-L-lysinecoated 384-well white clear bottom cell culture plates with complete DMEM with 1% dialized FBS at a density of 20,000 cells per well for another 24 h. The next day, cell medium were discarded and loaded with 20 μl of assay buffer (1×HBSS, 20 mM HEPES, pH 7.4, 0.1% BSA). To measure agonist activity of MT1 or MT2 receptor, 10 μl of test compound solution at 3× final concentration was added for 15 minutes followed by addition of 10 μl of luciferin/isoproterenol mixture (at a final concentration of 4 mM and 200 nM respectively) for another 15 mins for luminescence quantification. Then, plates were counted using SpectraMax luminescence reader (Molecular Device). Data were analyzed using GraphPad Prism 6.0.

[3] = HEK293, Table 2, agonist, normalized to melatonin response
[4] = HEK293, Table 1, agonist, normalized to melatonin response
[5] = HEK293, Table 2, cell marked Inverse (inverse agonist)
[6] = cell marked Inverse (inverse agonist)
[7] = HEK293, Table 1, cell marked Inverse (inverse agonist)

Chain of hMT1 (P48039 whole entry): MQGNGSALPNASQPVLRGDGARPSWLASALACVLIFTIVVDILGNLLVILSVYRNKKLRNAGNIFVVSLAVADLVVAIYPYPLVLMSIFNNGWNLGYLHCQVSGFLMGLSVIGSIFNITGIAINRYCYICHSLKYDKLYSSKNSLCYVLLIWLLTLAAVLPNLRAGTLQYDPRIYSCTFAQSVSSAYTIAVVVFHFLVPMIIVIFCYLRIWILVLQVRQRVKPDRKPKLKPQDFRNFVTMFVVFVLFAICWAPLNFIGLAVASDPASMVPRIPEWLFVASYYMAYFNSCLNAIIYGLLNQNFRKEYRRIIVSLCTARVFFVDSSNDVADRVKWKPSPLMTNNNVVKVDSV

SMILES: CN(Cc1ccc2c(c1)OCO2)c1ccnc(Cl)c1 [ZINC223593565]
Emax [1, 3]: 58% | Emax [2, 3]: 86%

SMILES: CN(Cc1ccc2c(c1)OCO2)c1ccnc(Cl)c1 [ZINC301472854]
Emax [1, 4]: 88% | Emax [2, 4]: 95% | MT1 pEC50 ([2]; Table 1, agonist): 6.03 ± 0.10

SMILES: COc1ccc(CN(C)C(=O)c2cccc(OC(F)F)c2)cc1O [ZINC353044322]
MT2 activity [1]: without detectable MT2 activity | Emax [2, 4]: 87% | MT1 pEC50 ([2]; Table 1, agonist): 5.48 ± 0.05 | EC50 ([2]; agonist): 2 to 6 µM

SMILES: COC(=O)c1cc(Cn2ccn3c(=O)cc(C)nc23)c(C)s1 [ZINC419113878]
MT2 activity [1]: without detectable MT2 activity | Emax [2, 4]: 84% | MT1 pEC50 ([2]; Table 1, agonist): 5.20 ± 0.08 | EC50 ([2]; agonist): 2 to 6 µM

SMILES: COC(=O)c1ccc(I)c(Oc2ccnc(C)n2)c1 [ZINC432154404]
Emax [1, 4]: 74% | Emax [2, 4]: 95% | MT1 pEC50 ([2]; Table 1, agonist): 6.63 ± 0.17

SMILES: Cn1c(=O)oc2c(NCc3ccc(-c4cc[nH]n4)o3)cccc21 [ZINC433313647]
Emax [1, 4]: 96% | Emax [2, 4]: 42% | MT1 pEC50 ([2]; Table 1, agonist): 6.81 ± 0.32

SMILES: COc1ccc(CN(C(=O)c2scc(C)c2Cl)c2ccncc2)cc1 [ZINC485552623]
Emax [1, 3]: 107% | MT2 pEC50 ([1]; agonist): 5.80 ± 0.06 | MT1 activity ([2]; FIG. 7D, in words): without detectable MT1 activity

SMILES: COc1ccc(CN(C(=O)OC2CCC2)c2ccncc2)cc1 [ZINC497291360]
selectivity for MT2 over MT1 ([1]; FIG. 7 analogs of '9032): 2 fold | Emax [1, 3]: 75 ± 50.1% | MT2 pEC50 ([1]; agonist): 7.48 ± 0.05 | Emax [2, 3]: 92% | MT1 pEC50 ([2]; Table 2, agonist): 7.05 ± 0.10

SMILES: Clc1cc(Br)ccc1CNc1cccc(-c2nnc[nH]2)c1 [ZINC516666069]
Emax [1, 5]: 118% | MT2 pEC50 [1, 6]: 5.58 ± 0.04 | Emax [2, 5]: 42% | MT1 pEC50 ([2]; Table 2, cell marked Inverse (inverse agonist)): 7.05 ± 0.03

SMILES: CCc1nc(SCc2cccc(C(=O)OC)c2)nc(O)c1C [ZINC576887661]
Emax [1, 4]: 68% | Emax [2, 4]: 83% | MT1 pEC50 ([2]; Table 1, agonist): 7.10 ± 0.19

SMILES: COCCN(Cc1ccc2c(c1)OCO2)c1nc(C(F)(F)F)ns1 [ZINC580731466]
selectivity for the MT2 receptor [1]: ~100 fold | Emax [1, 4]: 98% | Emax [2, 4]: 71% | MT1 pEC50 ([2]; Table 1, agonist): 5.70 ± 0.13

SMILES: COC(=O)c1cc(Cn2nc(C)c(N)c2C)c(C)s1 [ZINC602421874]
Emax [1, 3]: 66% | MT2 pEC50 ([1]; agonist): 5.35 ± 0.10 | Emax [2, 3]: 51% | MT1 pEC50 ([2]; Table 2, agonist): 4.70 ± 0.11

SMILES: CCOC(=O)c1nc(N(C)CC2CCCC2O)ccc1Br (stereo not shown) [ZINC603324490]
Emax [1, 7]: 202% | EC50 ([1]; inverse agonist, read-out: EC50 at MT2): 600 nM | Emax [2, 7]: 37% | MT1 pEC50 ([2]; Table 1, cell marked Inverse (inverse agonist)): 5.92 ± 0.29 | MT1 efficacy ([2]; in the concentration range of its MT2 inverse agonism (600 nM)): without substantial MT1 efficacy

Emax [1, 4]: 75%
SMILES: Cc1cc(=O)n2ccn(CCc3ccc4c(c3)OC(F)(F)O4)c2n1 [ZINC664088238]

SMILES: COC(=O)c1csc(CSc2nnc(C3CC3)[nH]2)c1 [ZINC713465976]
Emax [1, 3]: 94% | MT2 pEC50 ([1]; agonist): 8.23 ± 0.11 | Emax [2, 3]: 101% | MT1 pEC50 ([2]; Table 2, agonist): 7.75 ± 0.22

SMILES: COc1ccc(CNc2cccc(-n3nccn3)c2)cc1 [ZINC864032792]
Emax [1, 5]: 35% | MT2 pEC50 [1, 6]: 6.66 ± 0.08 | Emax [2, 3]: 57% | MT1 pEC50 ([2]; Table 2, agonist): 7.49 ± 0.04

type selectivity [1]: little type selectivity
SMILES: COc1ccc2cccc(CCNC(C)=O)c2c1 [agomelatine, reference compound]

type selectivity [1]: little type selectivity
SMILES: CCC(=O)NCC[C@@H]1CCc2ccc3c(c21)CCO3 [ramelteon, reference compound]
